{"source": "paper PMC5218480", "about": "(PLoS ONE, 2017)", "test_system": "MV-4-11 cells", "test": "Gene expression microarray analysis (Affymetrix PrimeView) and GSEA", "format": "cell-based, human", "set-up": "RFU PODN (11730768_x_at) / Fold change /veh PODN (11730768_x_at) / RFU LINC00158 (11744669_a_at) / Fold change /veh LINC00158 (11744669_a_at) / RFU DUSP10 (11751237_a_at) / Fold change /veh DUSP10 (11751237_a_at) / RFU ID3 (11757404_x_at) / Fold change /veh ID3 (11757404_x_at) / RFU PLEKHG5 (11737974_s_at) / Fold change /veh PLEKHG5 (11737974_s_at) / RFU LRRC4B (11730491_at) / Fold change /veh LRRC4B (11730491_at) / RFU GIMAP4 (11747438_a_at) / Fold change /veh GIMAP4 (11747438_a_at) / RFU KRT8 (11758183_x_at) / Fold change /veh KRT8 (11758183_x_at) / RFU CNN1 (11734310_a_at) / Fold change /veh CNN1 (11734310_a_at) / RFU VPS37D (11726825_at) / Fold change /veh VPS37D (11726825_at) / RFU C10orf10 (11716522_x_at) / Fold change /veh C10orf10 (11716522_x_at) / RFU KIR2DL2 /// KIR2DL4 /// KIR2DL5A /// KIR2DL5B /// KIR2DS1 /// KIR2DS2 /// KIR2DS3 /// KIR2DS4 /// KIR3DL3 /// KIR3DL3 /// KIR3DS1 (11738374_at) / Fold change /veh KIR2DL2 /// KIR2DL4 /// KIR2DL5A /// KIR2DL5B /// KIR2DS1 /// KIR2DS2 /// KIR2DS3 /// KIR2DS4 /// KIR3DL3 /// KIR3DL3 /// KIR3DS1 (11738374_at) / RFU C1QL1 (11718748_at) / Fold change /veh C1QL1 (11718748_at) / RFU TMPRSS4 (11747572_a_at) / Fold change /veh TMPRSS4 (11747572_a_at) / RFU HAMP (11756126_x_at) / Fold change /veh HAMP (11756126_x_at) / RFU RNFT2 (11725882_a_at) / Fold change /veh RNFT2 (11725882_a_at) / RFU NR4A2 (11747474_a_at) / Fold change /veh NR4A2 (11747474_a_at) / RFU ABCC12 (11746883_a_at) / Fold change /veh ABCC12 (11746883_a_at) / RFU TMEM136 (11760407_x_at) / Fold change /veh TMEM136 (11760407_x_at) / RFU CLDN22 /// WWC2 (11732394_at) / Fold change /veh CLDN22 /// WWC2 (11732394_at) / RFU HLA-DPB1 (11760878_x_at) / Fold change /veh HLA-DPB1 (11760878_x_at) / RFU SPINT1 (11716480_a_at) / Fold change /veh SPINT1 (11716480_a_at) / RFU GAP43 (11754022_s_at) / Fold change /veh GAP43 (11754022_s_at) / RFU A4GNT (11735810_at) / Fold change /veh A4GNT (11735810_at) / RFU PRB3 (11715151_x_at) / Fold change /veh PRB3 (11715151_x_at) / RFU TUBB4B (11761932_at) / Fold change /veh TUBB4B (11761932_at) / RFU CAPN14 (11732068_a_at) / Fold change /veh CAPN14 (11732068_a_at) / RFU TMCC2 (11721928_a_at) / Fold change /veh TMCC2 (11721928_a_at) / RFU IRGQ (11745062_a_at) / Fold change /veh IRGQ (11745062_a_at) / RFU FAM174B (11720279_a_at) / Fold change /veh FAM174B (11720279_a_at) / RFU TMPRSS4 (11748680_a_at) / Fold change /veh TMPRSS4 (11748680_a_at) / RFU FAM212B (11763350_a_at) / Fold change /veh FAM212B (11763350_a_at) / RFU PLEKHG5 (11743358_a_at) / Fold change /veh PLEKHG5 (11743358_a_at) / RFU ZSCAN30 (11745921_a_at) / Fold change /veh ZSCAN30 (11745921_a_at) / RFU CMKLR1 (11741424_a_at) / Fold change /veh CMKLR1 (11741424_a_at) / RFU LOC101060620 /// MAPK8IP1 (11723275_at) / Fold change /veh LOC101060620 /// MAPK8IP1 (11723275_at) / RFU SPTSSB (11747773_x_at) / Fold change /veh SPTSSB (11747773_x_at) / RFU PRSS12 (11739890_at) / Fold change /veh PRSS12 (11739890_at) / RFU BIN1 (11741810_x_at) / Fold change /veh BIN1 (11741810_x_at) / RFU WNT11 (11732464_a_at) / Fold change /veh WNT11 (11732464_a_at) / RFU C10orf10 (11716521_a_at) / Fold change /veh C10orf10 (11716521_a_at) / RFU C5orf56 (11738089_at) / Fold change /veh C5orf56 (11738089_at) / RFU CYB561 (11721691_x_at) / Fold change /veh CYB561 (11721691_x_at) / RFU ANKRD19P (11752326_a_at) / Fold change /veh ANKRD19P (11752326_a_at) / RFU OR2T12 /// OR2T33 /// OR2T8 (11738714_s_at) / Fold change /veh OR2T12 /// OR2T33 /// OR2T8 (11738714_s_at) / RFU VCAN (11748164_a_at) / Fold change /veh VCAN (11748164_a_at) / RFU JSRP1 (11732532_at) / Fold change /veh JSRP1 (11732532_at) / RFU KRTAP10-11 (11738290_x_at) / Fold change /veh KRTAP10-11 (11738290_x_at) / RFU MYO3A (11730013_a_at) / Fold change /veh MYO3A (11730013_a_at) / RFU EBF3 (11725865_a_at) / Fold change /veh EBF3 (11725865_a_at) / RFU CAMK2N1 (11719241_x_at) / Fold change /veh CAMK2N1 (11719241_x_at) / RFU C5orf56 (11738088_a_at) / Fold change /veh C5orf56 (11738088_a_at) / RFU OLFML3 (11715873_a_at) / Fold change /veh OLFML3 (11715873_a_at) / RFU LOC100653217 /// NTM (11731650_a_at) / Fold change /veh LOC100653217 /// NTM (11731650_a_at) / RFU MAPK11 (11762145_a_at) / Fold change /veh MAPK11 (11762145_a_at) / RFU FIZ1 (11724087_x_at) / Fold change /veh FIZ1 (11724087_x_at) / RFU OASL (11726364_x_at) / Fold change /veh OASL (11726364_x_at) / RFU SOX15 (11748057_x_at) / Fold change /veh SOX15 (11748057_x_at) / RFU CD79A (11719716_a_at) / Fold change /veh CD79A (11719716_a_at) / RFU HIST1H1D (11736915_at) / Fold change /veh HIST1H1D (11736915_at) / RFU CASKIN2 (11723855_a_at) / Fold change /veh CASKIN2 (11723855_a_at) / RFU LOC730098 (11760151_x_at) / Fold change /veh LOC730098 (11760151_x_at) / RFU OR4N2 (11742367_at) / Fold change /veh OR4N2 (11742367_at) / RFU PRRT2 (11749266_a_at) / Fold change /veh PRRT2 (11749266_a_at) / RFU SNX32 (11753110_a_at) / Fold change /veh SNX32 (11753110_a_at) / RFU CDHR5 (11726645_a_at) / Fold change /veh CDHR5 (11726645_a_at) / RFU RCAN1 (11760418_a_at) / Fold change /veh RCAN1 (11760418_a_at) / RFU FAM167A (11723789_a_at) / Fold change /veh FAM167A (11723789_a_at) / RFU FAM26E (11764081_at) / Fold change /veh FAM26E (11764081_at) / RFU ISYNA1 (11749810_s_at) / Fold change /veh ISYNA1 (11749810_s_at) / RFU ACY1 (11761880_at) / Fold change /veh ACY1 (11761880_at) / RFU 11764098_at / Fold change /veh 11764098_at / RFU SAMD14 (11745864_x_at) / Fold change /veh SAMD14 (11745864_x_at) / RFU NPB (11741838_a_at) / Fold change /veh NPB (11741838_a_at) / RFU TMPRSS6 (11731388_a_at) / Fold change /veh TMPRSS6 (11731388_a_at) / RFU KRTAP10-2 (11738614_at) / Fold change /veh KRTAP10-2 (11738614_at) / RFU ARHGAP8 /// PRR5-ARHGAP8 (11727945_x_at) / Fold change /veh ARHGAP8 /// PRR5-ARHGAP8 (11727945_x_at) / RFU KRTAP5-7 /// NADSYN1 (11734609_at) / Fold change /veh KRTAP5-7 /// NADSYN1 (11734609_at) / RFU RASL12 (11751679_a_at) / Fold change /veh RASL12 (11751679_a_at) / RFU CDKN2B (11736163_a_at) / Fold change /veh CDKN2B (11736163_a_at) / RFU PRF1 (11729649_at) / Fold change /veh PRF1 (11729649_at) / RFU, ZNF638 /// ZNF638-IT1 / Fold change vs veh, ZNF638 /// ZNF638-IT1 / RFU, PANK3 / Fold change vs veh, PANK3 / RFU, SH3YL1 / Fold change vs veh, SH3YL1 / RFU, ZEB2 / Fold change vs veh, ZEB2 / RFU, NRIP1 / Fold change vs veh, NRIP1 / RFU, PTTG1IP / Fold change vs veh, PTTG1IP / RFU, CAPN2 / Fold change vs veh, CAPN2 / RFU, MED14 / Fold change vs veh, MED14 / RFU, SNORA58 / Fold change vs veh, SNORA58 / RFU, C1orf63 / Fold change vs veh, C1orf63 / RFU, LRRFIP1 / Fold change vs veh, LRRFIP1 / RFU, NDUFAF7 / Fold change vs veh, NDUFAF7 / RFU, SLC12A2 / Fold change vs veh, SLC12A2 / RFU, IBTK / Fold change vs veh, IBTK / RFU, ESF1 / Fold change vs veh, ESF1 / Fold change vs veh, TMEM50B / RFU, TAOK1 / Fold change vs veh, TAOK1 / RFU, ACBD3 / Fold change vs veh, ACBD3 / RFU, TMA16 / Fold change vs veh, TMA16 / RFU, RWDD3 / Fold change vs veh, RWDD3 / RFU, BCAT1 / Fold change vs veh, BCAT1 / RFU, EDEM3 / Fold change vs veh, EDEM3 / RFU, TMEM33 / Fold change vs veh, TMEM33 / RFU, WDR75 / Fold change vs veh, WDR75 / RFU, AHCTF1 / Fold change vs veh, AHCTF1 / RFU, TFRC / Fold change vs veh, TFRC / RFU, ZDHHC17 / Fold change vs veh, ZDHHC17 / RFU, NOM1 / Fold change vs veh, NOM1 / RFU, ARL8B / Fold change vs veh, ARL8B / RFU, ZBTB11 / Fold change vs veh, ZBTB11 / RFU, TAMM41 / Fold change vs veh, TAMM41 / RFU, KIAA1704 /// LOC100996395 / Fold change vs veh, KIAA1704 /// LOC100996395 / RFU, ING1 / Fold change vs veh, ING1 / RFU, TRMT61B / Fold change vs veh, TRMT61B / RFU, FUBP3 / Fold change vs veh, FUBP3 / RFU, TP53 / Fold change vs veh, TP53 / RFU, TNKS2 / Fold change vs veh, TNKS2 / RFU, ZFP14 / Fold change vs veh, ZFP14 / RFU, ACTR2 / Fold change vs veh, ACTR2 / RFU, PPP3R1 / Fold change vs veh, PPP3R1 / RFU, PIK3R1 / Fold change vs veh, PIK3R1 / RFU, HNRNPA1 / Fold change vs veh, HNRNPA1 / RFU, RNF170 / Fold change vs veh, RNF170 / RFU, ZNF28 / Fold change vs veh, ZNF28 / RFU, RNGTT / Fold change vs veh, RNGTT / RFU, OGT / Fold change vs veh, OGT / RFU, BRD1 / Fold change vs veh, BRD1 / RFU, MARS / Fold change vs veh, MARS / RFU, ZNF655 / Fold change vs veh, ZNF655 / RFU, FAHD1 / Fold change vs veh, FAHD1 / RFU, BDP1 / Fold change vs veh, BDP1 / RFU, LRRCC1 / Fold change vs veh, LRRCC1 / RFU, ARID1A / Fold change vs veh, ARID1A / RFU, ZNF146 / Fold change vs veh, ZNF146 / RFU, ZNF330 / Fold change vs veh, ZNF330 / RFU, GPN3 / Fold change vs veh, GPN3 / RFU, C9orf123 / Fold change vs veh, C9orf123 / RFU, N4BP2L2 / Fold change vs veh, N4BP2L2 / RFU, ARFIP1 / Fold change vs veh, ARFIP1 / RFU, FAM179B / Fold change vs veh, FAM179B / RFU, BCL10 / Fold change vs veh, BCL10 / RFU, UHRF1BP1L / Fold change vs veh, UHRF1BP1L / RFU, BET1 / Fold change vs veh, BET1 / RFU, CNOT2 / Fold change vs veh, CNOT2 / RFU, ZNF268 / Fold change vs veh, ZNF268 / Fold change vs veh, ZNF507 / RFU, DGCR2 / Fold change vs veh, DGCR2 / RFU, WDSUB1 / Fold change vs veh, WDSUB1 / Fold change vs veh, HSP90B1 /// MIR3652 / RFU, ADSS / Fold change vs veh, ADSS / RFU, GK / Fold change vs veh, GK / RFU, ZNF148 / Fold change vs veh, ZNF148 / RFU, TAF9 / Fold change vs veh, TAF9 / RFU, SLC1A5 / Fold change vs veh, SLC1A5 / RFU, SLMO2 / Fold change vs veh, SLMO2 / RFU, ABCC4 / Fold change vs veh, ABCC4 / RFU, LOC101060439 /// RAP1B / Fold change vs veh, LOC101060439 /// RAP1B / RFU, RFX7 / Fold change vs veh, RFX7 / RFU, GTPBP10 / Fold change vs veh, GTPBP10 / RFU, CNEP1R1 / Fold change vs veh, CNEP1R1 / RFU, BIVM-ERCC5 /// ERCC5 / Fold change vs veh, BIVM-ERCC5 /// ERCC5 / RFU, ILF3 / Fold change vs veh, ILF3 / RFU 11762660_at / Fold change /veh 11762660_at / RFU VCAN (11757783_s_at) / Fold change /veh VCAN (11757783_s_at) / RFU DDX43 (11728927_at) / Fold change /veh DDX43 (11728927_at) / RFU KRT8 (11758188_x_at) / Fold change /veh KRT8 (11758188_x_at) / RFU NKD1 (11759106_at) / Fold change /veh NKD1 (11759106_at) / RFU SRD5A1 (11742802_a_at) / Fold change /veh SRD5A1 (11742802_a_at) / RFU TPSAB1 /// TPSB2 (11721975_s_at) / Fold change /veh TPSAB1 /// TPSB2 (11721975_s_at) / RFU GSTM3 (11746129_a_at) / Fold change /veh GSTM3 (11746129_a_at) / RFU IL23R (11737362_x_at) / Fold change /veh IL23R (11737362_x_at) / RFU TMEM51 (11727254_a_at) / Fold change /veh TMEM51 (11727254_a_at) / RFU PIWIL2 (11732686_x_at) / Fold change /veh PIWIL2 (11732686_x_at) / RFU ORM1 (11744905_x_at) / Fold change /veh ORM1 (11744905_x_at) / RFU CCDC152 (11743942_at) / Fold change /veh CCDC152 (11743942_at) / RFU ECM1 (11717891_a_at) / Fold change /veh ECM1 (11717891_a_at) / RFU IL23R (11748794_a_at) / Fold change /veh IL23R (11748794_a_at) / RFU TNFAIP8L3 (11732012_x_at) / Fold change /veh TNFAIP8L3 (11732012_x_at) / RFU MBOAT4 (11741988_at) / Fold change /veh MBOAT4 (11741988_at) / RFU 11764193_at / Fold change /veh 11764193_at / RFU TMEM53 (11763286_at) / Fold change /veh TMEM53 (11763286_at) / RFU MAGEB2 (11727129_at) / Fold change /veh MAGEB2 (11727129_at) / RFU TMEM200A (11744735_a_at) / Fold change /veh TMEM200A (11744735_a_at) / RFU CCDC152 (11751479_a_at) / Fold change /veh CCDC152 (11751479_a_at) / RFU FAM211A (11726209_a_at) / Fold change /veh FAM211A (11726209_a_at) / RFU RGS16 (11746705_a_at) / Fold change /veh RGS16 (11746705_a_at) / RFU VCAN (11755009_s_at) / Fold change /veh VCAN (11755009_s_at) / RFU RHOB (11743442_s_at) / Fold change /veh RHOB (11743442_s_at) / RFU RGS16 (11720943_a_at) / Fold change /veh RGS16 (11720943_a_at) / RFU RGS16 (11720944_at) / Fold change /veh RGS16 (11720944_at) / RFU, VPS4B / Fold change vs veh, VPS4B / RFU, CREB1 / Fold change vs veh, CREB1 / RFU, DNAJC13 / Fold change vs veh, DNAJC13 / RFU, GNAQ / Fold change vs veh, GNAQ / RFU, CDK5R1 / Fold change vs veh, CDK5R1 / RFU, ZRANB3 / Fold change vs veh, ZRANB3 / RFU, CUL4A / Fold change vs veh, CUL4A / RFU, CCNY / Fold change vs veh, CCNY / RFU, UFL1 / Fold change vs veh, UFL1 / RFU, COG3 / Fold change vs veh, COG3 / RFU, DIAPH2 / Fold change vs veh, DIAPH2 / RFU, SKA2 / Fold change vs veh, SKA2 / RFU, AFF3 / Fold change vs veh, AFF3 / RFU, LMF1 / Fold change vs veh, LMF1 / RFU, IPO11 / Fold change vs veh, IPO11 / RFU, DFFB / Fold change vs veh, DFFB / RFU, FOXP1 / Fold change vs veh, FOXP1 / RFU, CARD8 / Fold change vs veh, CARD8 / RFU, STRN3 / Fold change vs veh, STRN3 / RFU, ADK / Fold change vs veh, ADK / RFU, RASSF2 / Fold change vs veh, RASSF2 / RFU, WIPF1 / Fold change vs veh, WIPF1 / RFU, LARP1B / Fold change vs veh, LARP1B / RFU, RASA1 / Fold change vs veh, RASA1 / RFU, RB1 / Fold change vs veh, RB1 / RFU, PPFIA1 / Fold change vs veh, PPFIA1 / RFU, MAT2A / Fold change vs veh, MAT2A / RFU, CCT5 / Fold change vs veh, CCT5 / RFU, WDR92 / Fold change vs veh, WDR92 / RFU, CUX1 / Fold change vs veh, CUX1 / RFU, TTC7A / Fold change vs veh, TTC7A / RFU, TMEM135 / Fold change vs veh, TMEM135 / RFU, DEPTOR / Fold change vs veh, DEPTOR / RFU, CPM / Fold change vs veh, CPM / RFU, DNAJB6 / Fold change vs veh, DNAJB6 / RFU, CACNA2D3 / Fold change vs veh, CACNA2D3 / RFU, DTX4 / Fold change vs veh, DTX4 / RFU, TFCP2 / Fold change vs veh, TFCP2 / RFU, GMCL1 /// GMCL1P1 / Fold change vs veh, GMCL1 /// GMCL1P1 / RFU, AEBP2 / Fold change vs veh, AEBP2 / RFU, SNHG1 /// SNORD22 /// SNORD25 /// SNORD26 /// SNORD27 /// SNORD28 /// SNORD29 /// SNORD31 / Fold change vs veh, SNHG1 /// SNORD22 /// SNORD25 /// SNORD26 /// SNORD27 /// SNORD28 /// SNORD29 /// SNORD31 / Fold change (Aza/veh), C12orf56 (ProbeSet 11735607_a_at) / Fold change (ACY-1035/veh), C12orf56 (ProbeSet 11735607_a_at) / Fold change (Aza/veh), FGFR1OP (ProbeSet 11751329_s_at) / Fold change (ACY-1035/veh), FGFR1OP (ProbeSet 11751329_s_at) / Fold change (Aza/veh), VPS36 (ProbeSet 11739960_a_at) / Fold change (ACY-1035/veh), VPS36 (ProbeSet 11739960_a_at) / RFU SYPL1 (11715823_x_at) / Fold change /veh SYPL1 (11715823_x_at) / RFU IGFBP7 (11715501_s_at) / Fold change /veh IGFBP7 (11715501_s_at) / RFU REEP3 (11722064_at) / Fold change /veh REEP3 (11722064_at) / RFU IGLL1 (11728026_x_at) / Fold change /veh IGLL1 (11728026_x_at): dose or concentration left out as unconfirmed", "conditions": "gene FGFR1OP; Azacitidine vs DMSO; LIST F"}
{"smiles": "Nc1ncn([C@@H]2O[C@H](CO)[C@@H](O)[C@H]2O)c(=O)n1", "note": "[azacitidine]", "values": [{"measurement": "Fold change (Aza/veh), FGFR1OP (ProbeSet 11751329_s_at)", "result": 0.95}]}
